Results from PubChem BioAssay AID1963862 (Molecular Pharmacology Branch, DTP, NCI, 2024).
pIC50: −log10 of the molar value. “And” between values parts separate entries of the source, which are not always exact repeats. Identical values can stand only once. The source made the active and inactive calls. How the source made its calls: active means viability on the fitted dose curve at most 10% of control; inactive means the rest.

System: KRAS patient-derived spheroids with HUVEC/MSC, viability
Assay: Anticancer human tumor 941728-121-R-J1-PDC patient-derived lung adenocarcinoma cell line growth inhibition [KRAS2]
Conditions: for viability, T/C: stronger effect = lower value
Text: Multicellular complex tumor spheroid response to RAS pathway inhibitors in combination with a targeted agents in patient-derived cell lines with oncogenic KRAS variants from multiple cancer types
A high-throughput screen of multi-cell type tumor spheroids was designed to identify active combinations of targeted small molecules and KRAS pathway inhibitors. Complex spheroids include a stromal component modeled by human endothelial cells (HUVEC) and fibroblasts modeled by human mesenchymal stem cells (MSCs). The concentration ranges selected for each drug and investigational agent were based upon clinically achievable concentrations if the clinical Cmax of the agent was known.
Compounds. The drugs and investigational agents: BI-3406 (NSC825286), BAY-293 (NSC824723), batoprotafib (TNO155; NSC825523), sotorasib (AMG 510; NSC818433), MRTX1257 (NSC819558), elimusertib (BAY 1895344; NSC800525), molibresib (GSK525762; NSC774829), temuterkib (LY3214996; NSC803410), venetoclax (NSC766270), alisertib (NSC759677), olaparib (NSC753686), talazoparib (NSC767125), erdafitinib (NSC781556), ipatasertib (NSC767898), cabozantinib (NSC761068), nintedanib (NSC756659), abemaciclib (NSC768073), docetaxel (NSC628503), trametinib (NSC758246), and sapanisertib (NSC764658) were obtained from the National Cancer Institute (NCI) Developmental Therapeutics Program Chemical Repository. The FDA-approved anticancer drug set is available from the Developmental Therapeutics Program. […] The stock solutions were prepared in dimethyl sulfoxide (DMSO, Sigma-Aldrich, St. Louis, MO, cat. D2650) at 800-fold the tested concentration and stored at -70 degrees C prior to their use. All drugs and investigational agents were tested over a range starting from a high concentration at or near the clinical Cmax and decreasing in half-log increments. If the clinical Cmax for an agent had not been determined, the highest concentration tested was 10 microM.
Cell Culture. All cells were maintained in an incubator at 37 degrees C and 5% CO2 with 95% humidity. The PDC lines were cultured according to standard operating procedures established by the NCI PDMR (https://pdmr.cancer.gov/sops/default.htm). Briefly, all PDCs were thawed and cultured in Matrigel-coated flasks prepared with a working solution of 1X Ham's F-12 nutrient mix, without supplementation (Invitrogen, Waltham, MA, cat. 11765054), 100 U/mL penicillin-streptomycin (Invitrogen, cat. 15140122), and 2.5% Matrigel (Corning Inc., Corning, NY, cat. 354248) for the first three passages. All PDCs were cultured in complete DMEM/F-12 media containing advanced DMEM/F-12 (Invitrogen, cat. 12634028), 4.9% defined fetal bovine serum, heat inactivated (HyClone Laboratories Inc., Logan, UT, cat. SH30070.03HI), 389 ng/mL hydrocortisone (Sigma-Aldrich, cat. H4001), 9.7 ng/mL human EGF recombinant protein (Invitrogen, cat. PHG0313), 23.4 microg/mL adenine (Sigma-Aldrich, cat. A2786), 97.3 U/mL penicillin-streptomycin (Invitrogen, cat. 15140122), 1.9 mM L-glutamine (Invitrogen, cat. 25030081), and 9.7 microM Y-27632 dihydrochloride (Tocris Bioscience, Bristol, United Kingdom, cat. 1254). The PDCs were cultured in complete DMEM/F12 media without 9.7 microM Y-27632 dihydrochloride for at least two passages prior to the screen. The established cell line HOP-62 was cultured in RPMI 1640 medium, HEPES (Invitrogen, cat. 22400105) with 10% defined fetal bovine serum (HyClone Laboratories Inc., cat. SH30070.03) and 2 mM L-glutamine (Invitrogen, cat. 25030081). The pooled donor HUVEC were cultured in endothelial cell growth medium 2 (PromoCell, Heidelberg, Germany, cat. C-22011) and the hMSC were cultured in mesenchymal stem cell growth medium 2 (PromoCell, cat. C-28009). For all experiments, HUVEC and hMSC were used at passages </=5, while the malignant cell lines were used at passages </=15. […]

[1] = compound alone, run of 07/12/2021
[2] = compound alone, run of 07/19/2021
[3] = compound alone, run of 07/26/2021
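Wherever pIC50 is given: spheroids exposed to agents for seven days before readout.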
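Wherever viability, T/C is given: spheroids exposed to agents for seven days before readout.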

| Structure (SMILES) | viability, T/C (compound 0.1 µM) | viability, T/C (compound 0.316 µM) | viability, T/C (compound 1 µM) | viability, T/C (compound 3.16 µM) | viability, T/C (compound 10 µM) | viability, T/C (compound 0.0316 µM) | IC50 (curve of compound) | pIC50 (curve of compound) | other results |
| --- | --- | --- | --- | --- | --- | --- | --- | --- | --- |
| C=CC(=O)N1CCN(c2nc(=O)n(-c3c(C)ccnc3C(C)C)c3nc(-c4c(O)cccc4F)c(F)cc23)C(C)C1 (stereo not drawn) | 23.2% [middle of 17 runs] | 22.9% [middle of 17 runs] | 22.8% [middle of 17 runs] | 27.4% [middle of 17 runs] | 32.9% [middle of 17 runs] |  |  |  | pIC50 [1]: > 7.00; pIC50 [2]: > 7.00; pIC50 [3]: > 7.00 |
| C=CC(=O)N1CCN(c2nc(OCC3CCCN3C)nc3c2CCN(c2cccc4cccc(C)c24)C3)CC1CC#N (stereo not drawn) | 30.3% [middle of 16 runs] |  | 27.2% [middle of 17 runs] |  |  |  |  |  | pIC50 [1]: > 7.50; pIC50 [2]: > 7.50; pIC50 [3]: > 7.50 |
| CC(=O)Nc1cccc(-n2c(=O)n(C3CC3)c(=O)c3c(Nc4ccc(I)cc4F)n(C)c(=O)c(C)c32)c1 |  |  |  |  |  | 42.3% [middle of 5 runs] |  |  | viability, T/C (compound 0.0001 µM): 84.8% [middle of 5 runs]; viability, T/C (compound 0.000316 µM): 63.7% [middle of 5 runs]; viability, T/C (compound 0.001 µM): 53.3% [middle of 5 runs]; viability, T/C (compound 0.00316 µM): 49.9% [middle of 4 runs]; viability, T/C (compound 0.01 µM): 47.2% [middle of 5 runs] |
| CC(=O)OC12COC1CC(O)C1(C)C(=O)C(O)C3=C(C)C(OC(=O)C(O)C(NC(=O)OC(C)(C)C)c4ccccc4)CC(O)(C(OC(=O)c4ccccc4)C21)C3(C)C (stereo not drawn) | 46.2% [middle of 5 runs] | 46.5% [middle of 5 runs] | 53.8% [middle of 5 runs] | 55.1% [middle of 5 runs] |  | 46.3% [middle of 5 runs] |  |  | viability, T/C (compound 0.01 µM): 53% [middle of 5 runs] |
| CC(C)NCC(C(=O)N1CCN(c2ncnc3c2C(C)CC3O)CC1)c1ccc(Cl)cc1 (stereo not drawn) | 90.6% [middle of 5 runs] | 56.5% [middle of 5 runs] | 43.8% [middle of 5 runs] |  | 31.9% [middle of 5 runs] | 92.1% [middle of 5 runs] | 592 nM [middle of 5 runs] |  |  |
| CC(C)n1nc(-c2ccc3oc(N)nc3c2)c2c(N)ncnc21 |  |  |  |  |  |  |  |  | viability, T/C (compound 0.000316 µM): 90% [middle of 5 runs] |
| CC1(C)CCC(CN2CCN(c3ccc(C(=O)NS(=O)(=O)c4ccc(NCC5CCOCC5)c([N+](=O)[O-])c4)c(Oc4cnc5[nH]ccc5c4)c3)CC2)=C(c2ccc(Cl)cc2)C1 |  |  | 51.1% [middle of 5 runs] | 11.1% [middle of 5 runs] | 5.66% [middle of 5 runs] |  | 918 nM [middle of 5 runs] |  |  |
| CC1COCCN1c1cc(-c2ccnn2C)c2ccnc(-c3ccn[nH]3)c2n1 (stereo not drawn) | 44% [middle of 5 runs] | 42% [middle of 5 runs] | 35.4% [middle of 5 runs] | 33.2% [middle of 5 runs] |  |  |  |  |  |
| CC1OCC2(CCN(c3cnc(Sc4ccnc(N)c4Cl)c(N)n3)CC2)C1N (stereo not drawn) | 48.3% [middle of 19 runs] | 38% [middle of 19 runs] |  | 29.8% [middle of 20 runs] |  | 71% and 57.9% and 63.9% | 141 nM [middle of 5 runs] |  | pIC50 [2]: > 7.00 |
| CCN1CCN(Cc2ccc(Nc3ncc(F)c(-c4cc(F)c5nc(C)n(C(C)C)c5c4)n3)nc2)CC1 | 59.9% [middle of 5 runs] | 60.4% [middle of 5 runs] | 74.5% [middle of 5 runs] |  |  | 60.2% [middle of 5 runs] |  | < 6.00 | viability, T/C (compound 0.00316 µM): 86.1% [middle of 5 runs]; viability, T/C (compound 0.01 µM): 71.3% [middle of 5 runs] |
| CCNC(=O)CC1N=C(c2ccc(Cl)cc2)c2cc(OC)ccc2-n2c(C)nnc21 (stereo not drawn) |  | 61.8% [middle of 5 runs] |  |  |  | 94% [middle of 5 runs] |  |  |  |
| CN(C)C/C=C/C(=O)Nc1cc2c(Nc3ccc(F)c(Cl)c3)ncnc2cc1O[C@H]1CCOC1 | 62.2% [middle of 5 runs] |  |  |  |  | 57.2% [middle of 5 runs] |  | < 7.00 | viability, T/C (compound 0.000316 µM): 89.4% [middle of 5 runs]; viability, T/C (compound 0.001 µM): 78.7% [middle of 5 runs]; viability, T/C (compound 0.00316 µM): 63.7% [middle of 5 runs]; viability, T/C (compound 0.01 µM): 61.1% [middle of 5 runs] |
| CNCc1ccccc1-c1csc(C(C)Nc2nc(C)nc3cc(OC)c(OC)cc23)c1 (stereo not drawn) |  |  |  |  | 0.17% [middle of 15 runs] |  |  |  | IC50 [2]: 112 nM [middle of 5 runs] |
| COC(=O)c1ccc2c(C(=Nc3ccc(N(C)C(=O)CN4CCN(C)CC4)cc3)c3ccccc3)c(O)[nH]c2c1 | 77.9% [middle of 5 runs] |  | 68.6% [middle of 5 runs] | 69% [middle of 5 runs] | 64% [middle of 5 runs] |  |  | < 5.00 |  |
| COc1cc(Nc2ncc3c(n2)-c2ccc(Cl)cc2C(c2c(F)cccc2OC)=NC3)ccc1C(=O)O |  |  | 63.3% [middle of 5 runs] | 55% [middle of 5 runs] | 50.9% [middle of 5 runs] |  |  |  |  |
| COc1cc(OC)cc(N(CCNC(C)C)c2ccc3ncc(-c4cnn(C)c4)nc3c2)c1 | 104% [middle of 5 runs] | 92% [middle of 5 runs] |  |  |  |  |  |  |  |
| COc1cc2nc(C)nc(NC(C)c3cc(N)cc(C(F)(F)F)c3)c2cc1OC1CCOC1 (stereo not drawn) |  |  |  |  |  |  |  |  | pIC50 [2]: > 7.00 and 6.42 and 6.65 |
| COc1cc2nccc(Oc3ccc(NC(=O)C4(C(=O)Nc5ccc(F)cc5)CC4)cc3)c2cc1OC |  | 83.8% [middle of 5 runs] |  |  |  | 97.7% [middle of 5 runs] |  | < 5.00 and 5.56 | outcome (compound 10 µM): inactive |
| Cn1nccc1Nc1nccc(-c2cc3c(s2)C(C)(C)N(CCN2CCOCC2)C3=O)n1 |  | 57.3% [middle of 5 runs] | 48.8% [middle of 5 runs] | 50.1% [middle of 5 runs] | 51.3% [middle of 5 runs] | 90.5% [middle of 5 runs] |  |  |  |
| Cn1ncnc1[C@H]1c2n[nH]c(=O)c3cc(F)cc(c23)N[C@@H]1c1ccc(F)cc1 |  |  |  |  |  |  |  | < 7.00 | viability, T/C (compound 0.000316 µM): 98.9% [middle of 5 runs]; viability, T/C (compound 0.001 µM): 104% [middle of 5 runs]; viability, T/C (compound 0.00316 µM): 91.5% [middle of 5 runs]; viability, T/C (compound 0.01 µM): 93.2% [middle of 5 runs] |
| O=C(c1cc(Cc2n[nH]c(=O)c3ccccc23)ccc1F)N1CCN(C(=O)C2CC2)CC1 | 96.4% [middle of 5 runs] | 92.6% [middle of 5 runs] |  |  | 82% [middle of 5 runs] |  |  | < 5.00 |  |
